Reference: patent publication US20060069040A1, “GHB compositions” (priority 2004, published 2006)
Read-outs that look alike come from different tables or passages of the source.

Legend:
CD-1 male mice [1] = assay type: in vivo; conditions: for Effect on GHB induced motor inhibition: Example 3: named compound 800 mg/kg i.p. 2 or 15 minutes before GHB 800 mg/kg i.p., mice not fasting
Protocol: (§1) CD-1 male mice (30-40 g) were housed 3 to 4 per cage in the animal care facility on a 12 hour light dark cycle with free access to water and food for at least 1 week before testing.
The Rota-rod is a validated and sensitive tool that has been developed to document neurological deficits after pharmacological treatments. In this test, mice are placed on an accelerating Rota-rod whose revolutions per minute increase from 4 to 40 cycles per minute in about 4 minutes. The time it takes for the mice to fall off the rod is the end point of the test. Initially, the mice were given 3 practice runs on the rod to familiarize themselves with the test procedure. The time that mice remained on the rod was usually between five and ten minutes. A baseline measure was then made, the test drug given and the test procedure run every 20 minutes starting at time 0, immediately after drug administration. The mice were tested for 160 minutes after GHB administration although in some experiments recordings were made for as long as 280 minutes. Motor activity was expressed as a percentage of the baseline value. The time it took the mice to fall off the rod at a given time point after drug administration was divided by the time it took at baseline.
(§2) Statistical significance between control and treated groups at each time point in the present study was determined by student's t-test. Note that values of motor activity were expressed as a percentage of the baseline value which was normalized to 100%.

CD-1 male mice [2] = test: Passivity test (sleep induction and sleep time); assay type: in vivo; conditions: for Effect on GHB sleep time: Example 6: 7.93 mmol/kg of named agent mixed in solution with GHB 7.93 mmol/kg, oral gavage, 8 mice; for Effect on GHB induced sleep time: 800 mg/kg i.p. of named compound followed immediately by GHB 800 mg/kg i.p.
Protocol: as §1
The passivity test developed by Irwing was used to determine sleep time. After GHB administration, the mice were placed in an unusual position and a score of 2, 4, 6, or 8 was given when the mice ceased to struggle against respectively being suspended vertically, rotated horizontally onto their backs, suspended by their hind limbs or suspended by their forelimbs. Scores on the passivity test were determined every 10 minutes after GHB administration. […] The time between scores of 8 and 2 was defined as the total sleep time.
as §2
The optimal dose of GHB for inducing sleep was determined with the passivity test. GHB was dissolved in 0.9% NaCl and 1% Tween 80 and delivered intraperitoneally (i.p.) to 4 groups of 6 mice that had not been fasting. Each group received either 200 mg/kg, 400 mg/kg, 600 mg/kg and 800 mg/kg. […] For this reason, this dose was used in the initial exploratory studies.

[3] = previous work (ref. 7); rats, tracer doses of GHB, intravenous infusion; cited from earlier work

Q: Which “Effect on motor inhibition produced by GHB” value (CD-1 male mice [1]; mouse, in vivo, po) does the source give for `O=C([O-])[C@@H](O)[C@@H](O)[C@H](O)[C@@H](O)CO.[Na+]` [G, L-gulonic acid sodium salt] here?
A: significantly prolonged and deepened the motor inhibition produced by GHB

Q: What about the “Effect on motor performance on its own” value (CD-1 male mice [1]; mouse, in vivo, po) of the same molecule?
A: had no effect on motor performance

Q: And the “Percent of motor activity after GHB administration, 0′” value (CD-1 male mice [1]; mouse, in vivo, po)?
A: 168 ± 5%

Q: What about the “Percent of motor activity after GHB administration, 20′” value (CD-1 male mice [1]; mouse, in vivo, po) of the same molecule?
A: 50 ± 24%

Q: And the “Percent of motor activity after GHB administration, 40′” value (CD-1 male mice [1]; mouse, in vivo, po)?
A: 303 ± 12%

Q: What about the “Percent of motor activity after GHB administration, 60′” value (CD-1 male mice [1]; mouse, in vivo, po) of the same molecule?
A: 183 ± 4%

Q: What about the “Percent of motor activity after GHB administration, 80′” value (CD-1 male mice [1]; mouse, in vivo, po) of the same molecule?
A: 156 ± 2%

Q: What about the “Percent of motor activity after GHB administration, 100′” value (CD-1 male mice [1]; mouse, in vivo, po) of the same molecule?
A: 66 ± 9%

Q: And the “Percent of motor activity after GHB administration, 160′” value (CD-1 male mice [1]; mouse, in vivo, po)?
A: 126 ± 3%

Q: What about the “Percent of motor activity after GHB administration, 220′” value (CD-1 male mice [1]; mouse, in vivo, po) of the same molecule?
A: 303 ± 23%

Q: What about the “Percent of motor activity after GHB administration, 280′” value (CD-1 male mice [1]; mouse, in vivo, po) of the same molecule?
A: 141 ± 5%

Q: And the “Effect on GHB sleep time” value (CD-1 male mice [2])?
A: almost doubled the sleep time

Q: And the “Effect on plasma half-life of GHB” value [3]?
A: can extend the plasma half-life of GHB

Q: For `O=C([O-])[C@H](O)[C@@H](O)[C@H](O)[C@H](O)CO.[Na+]` [GA, D-gluconic acid sodium salt], which “Effect on GHB induced sleep time” value (CD-1 male mice [2]; non-fasting mice) is on record?
A: did not show an increase in GHB induced sleep time

Q: With `O=C1O[C@H](CO)[C@@H](O)[C@H](O)[C@H]1O` [GAL, D-gluconic acid lactone] as the molecule, how does the “Effect on GHB induced motor inhibition” value (CD-1 male mice [1]) read?
A: most effectively potentiated GHB induced motor inhibition with significant effects at the 160 minute mark

Q: What about the “Effect on motor depression by oral GHB” value (CD-1 male mice [1]; Example 5: named compound 1200 mg/kg i.p. with GHB 1200 mg/kg orally) of the same molecule?
A: further significantly enhanced

Q: And the “Effect on motor inhibition produced by GHB” value (CD-1 male mice [1]; Example 6: named agent 7.93 mmol/kg orally together with GHB 7.93 mmol/kg)?
A: neither oral gluconic acid lactone or gulonolactone augmented the depressant effects of GHB

Q: What about the “Effect on GHB sleep time” value (CD-1 male mice [2]) of the same molecule?
A: appeared to increase the sleep time

Q: What about the “GHB induced sleep time” value (CD-1 male mice [2]; non-fasting mice, n=6/group, GHB 800 mg/kg i.p. alone or immediately after 800 mg/kg i.p. of the named compound) of the same molecule?
A: 155 ± 11 min

Q: Which results are given for `O=C[C@H](O)[C@@H](O)[C@H](O)[C@H](O)C(=O)[O-].[Na+]` [GCA, D-glucuronic acid sodium salt]?
A: Effect on GHB induced motor inhibition (CD-1 male mice [1]): potentiated and prolonged the motor inhibition produced by GHB; Effect on GHB induced sleep time (CD-1 male mice [2]; non-fasting mice): did not show an increase in GHB induced sleep time; Effect on plasma half-life of GHB [3]: decreased the plasma half-life of GHB
